Key:
4T1 cells [1] = experiment: MTT cell growth assay in 4T1 cells; format: cell-based, mouse
Procedure: (§1) Cell Culture Either cell line 4T1 or 67NR was a gift from Dr. Miller (20). The cells were cultured in RPMI1640 medium supplemented with glucose (14 mM), pyruvate (1 mM), penicillin (100 units/ml), streptomycin (100 μg/ml), and fetal bovine serum (10%), buffered with 25 mM HEPES (pH 7.4). LNCaP human prostate cancer cell line was purchased from American Type Culture Collection (Manassas, Va.). The cell line was cultured in RPMI1640 medium supplemented with glucose (14 mM), pyruvate (1 mM), penicillin (100 units/ml), streptomycin (100 μg/ml), and fetal bovine serum (10%). Drugs were dissolved in dimethyl sulfoxide (DMSO) at a suitable concentration so that the final concentration of DMSO in the medium was less than 0.1%.
MTT assay: Cells were incubated in PBS (−) supplemented with 5% fetal calf serum and 0.5 mg/ml MTT, 3-(4,5-Dimethylthiazol-2-yl)-2,5-diphenyltetrazolium bromide (Sigma, Saint Louis, Mo.) for 2 hrs. After the incubation, the cells were dissolved in dimethyl sulfoxide and the color of the solutions was measured by a spectrophotometer at wavelengths of 540 and 690 nm. The values correlated with viable cell numbers were obtained by subtracting the optical density at 690 nm from that, at 540 nm.

67NR cells [2] = experiment: 67NR tumor-bearing Balb/c mice (life-span); format: in vivo, mouse; conditions: 5×10^4 cells, M4N 1 mg/shot, Rottlerin 100 μg/shot, three days a week from day 8
Procedure: (§2) Animals: Female Balb/e mice were obtained from Charles River Laboratories (Wilmington, Mass.). M4N and Rottlerin were dissolved into a solvent, CPE (25/30) solvent system supplied by Erimos Pharmaceutical, L.L.C. (Raleigh, N.C.) and injected into mice either intravenously or intraperitoneally, T-cell deficient male nude mice (nu/nu) were obtained from Charles River Laboratories (Wilmington, Mass.). M4N and Ly294002 were dissolved into a solvent, CPE (25/30) solvent system supplied by Erimos Pharmaceutical, L.L.C. (Raleigh, N.C.) and injected into mice intravenously.
(§3) Tumor inoculation: Either 4T1 or 67NR cells were grown as described above. Cells growing subconfluently were collected and resuspended into the tissue culture medium minus fetal bovine serum and antibiotics, After counting the number of the cells, the cell concentration was adjusted. Twenty μl of the solution containing a selected number of cancer cells (either 5×10^3 or 5×10^4 cells) was injected into each fat pad of a pair of mammary glands located close to lower limbs. Tumor size was measured by weighing tumors extracted from mouse cadavers.

4T1 cells [3] = experiment: TUNEL apoptosis assay in 4T1 cells; format: cell-based, mouse; conditions: 4T1, 48 hr after treatment, M4N 80 μM
Procedure: as §1
(§4) Apoptosis assay: Simple TLTNEL assay was conducted by using TUNEL apoptosis detection kit (Upstate, Temecula, Calif.) with some modification. For the evaluation of the effect of PKCδ wild type and dominant negative vectors on TUNEL-positive cell death, we first transfected 4T1 or 67NR cells with these vectors by effectene (Qiagen, Valencia, Calif.). Wild type PKCδ vector is constructed from wild type PKCδ gene and pEGFP (Promega, Madison, Wis.). Dominant negative PKCδ vector is constructed from PKCδ gene mutated at a 376th amino acid residue (threonine) and pEGFP (Promega, Madison, Wis.) This threonine residue is located in ATP-binding domain of protein kinase Cδ, and therefore essential for any kinase reaction of the protein so that this mutant protein supposedly function as dominant negative. As a control we used pEGFP-N3 vector was used. These vectors contain green fluorescent protein (GFP) gene to be used as a transfection marker. The vectors are kind gifts from Dr. Yuspa (National Institutes of Health, Bethesda, Md.) (88). Twenty four hours after transfection, the cells were treated with M4N, Rottlerin, or Ly294002. Then 24 hrs after this treatment with these reagents, the cells were fixed with 10% formaldehyde in phosphate buffered saline without calcium and magnesium (PBS (−)). The cells were then incubated with rabbit anti-GFP antibody (MBL International, Woburn, Mass.) followed by treatment with anti-rabbit IgG antibody conjugated with fluorescein (Promega, Madison, Wis.). TUNEL staining was conducted by using TUNEL apoptosis detection kit (Upstate, Temecula, Calif.) except for using Streptavidin-Alexa Fluor 568 (Molecular Probes, Eugene, Oreg.) instead of Avidine-Rhodamine contained in the kit. Cell death was evaluated by dividing the number of TUNEL-positive cells among the cells positive with anti-GFP staining by the number of these GFP-positive cells.

4T1 cells [4] = experiment: 4T1 tumor-bearing Balb/c mice (life-span, tumor size); format: in vivo, mouse; conditions: 5×10^4 cells, M4N 1 mg/shot, Rottlerin 100 μg/shot, three days a week from day 7
Procedure: as §2, §3

PKCδ = experiment: Immunocytochemistry of PKCδ cellular localization in 4T1 cells; format: cell-based, mouse; conditions: 4T1, 5 hrs
Procedure: Immunocytocheimstry: Cells were cultured on glass cover slips coated with poly-L-ornithine (Sigma, Saint Louis, Mo.). At 5 hrs after treatment with drugs, the cells were fixed with 10% formaldehyde in diluted in PBS (−) and washed with PBS (−) three times. After permeabilized by 0.2% Tryton X-100 and 1% goat serum diluted in PBS (−), the cells were blocked by PBS (−) containing 5% goat serum. The cells were then incubated with primary antibodies diluted in PBS (−) containing 0.5% bovine serum albumin (BSA), and with secondary antibodies, which is either anti-IgG conjugated with fluorescein (Vector Laboratories. Burlingame, Calif.), diluted in PBS (−) containing 0.5% BSA. The cells were observed through Zeiss fluorescent microscope (Carl Zeiss, Thornwood, N.Y.).

67NR cells [5] = experiment: TUNEL apoptosis assay in 67NR cells; format: cell-based, mouse; conditions: 48 hr after treatment, M4N 80 μM
Procedure: as §1, §4

[6] = cited from earlier work
[7] = system: PDK-1/Akt pathway-related proteins; experiment: Western blotting of PDK-1/Akt pathway-related proteins in 4T1 cells; format: cell-based, mouse; conditions: 4T1, 5 hrs after treatment
Procedure: Western blotting: After cells had been grown in […] flasks and treated with reagents, the cells were washed with PBS (−) three times and suspended in RIP A buffer (150 mM NaCl, 50 mM Tris-HCl (pH 8,0), 0.1% SDS, 1% NP40, and 0.5% deoxycholate) supplemented with protease inhibitor cocktail (Calbiochem, San Diego, Calif.). The sample volumes were adjusted by the total protein amount. Protein assay was performed by Bio-Rad Protein Assay (Bio-Rad Laboratories, Inc. Hercules, Calif.). The samples were resolved by the standard SDS-polyacrylamide gel electrophoresis and transferred to nitrocellulose membrane (Amersham Biosciences, Bjorkgatan, Sweden). The membranes were blocked with skim milk, and incubated with primary antibodies at 4° C. overnight and then with secondary antibody conjugated with horse radish peroxidase at room temperature for 2 hrs. The signals were detected by western blot chemiluminescence reagent plus (New England Nuclear Life Science Products, Boston, Mass.).

Compound: COc1ccc(C[C@@H](C)[C@@H](C)Cc2ccc(OC)c(OC)c2)cc1OC [M4N, tetra-O-methyl nordihydroguaiaretic acid]
- cell growth (MTT) at 20 μM (4T1 cells [1]; 4T1, 20 μM): significant effect of the drug to reduce cell growth
- concentration at which cell growth stopped (4T1 cells [1]; 4T1, MTT): 80 µM
- time after treatment at which effect on cell growth was evident (4T1 cells [1]; 4T1, MTT): 42 h
- cell growth (MTT) (4T1 cells [1]; 4T1, different concentrations of M4N): reduced the cell growth of 4T1 cells depending on the concentration of the drug
- life-span of 67NR-bearing mice (67NR cells [2]): didn't have much effect on the life-span
- TUNEL-positive cell death (4T1 cells [3]): did not detect many TUNEL-positive cells
- life-span of 4T1-bearing mice (4T1 cells [4]): didn't extend the life-span
- cellular distribution / nuclear staining of total PKCδ (PKCδ): did not change much
- nuclear staining for phosphor-PKCδ (Thr505) in the presence of Des (PKCδ; with Desferoxamine 150 μM): markedly augmented nuclear staining
- nuclear staining for phosphor-PKCδ (Thr505) (PKCδ; without Desferoxamine co-treatment): augmented staining
- TUNEL-positive cell death (67NR cells [5]): more cell death in 67NR cells than 4T1 cells
- toxic effects after oral administration ([6]; mouse, in vivo, po): essentially no toxic effects
- M4N concentration retained in mouse organs ([6]; oral administration, short term and long term feeding): ≤ 906 μg/g of tissue
- total Akt expression [7]: not changed much
- expression of phosphorylated PDK (Ser241), Akt (Ser473), PRAS40 (Thr246), Raf (Ser259), MEK (Ser217/221) ([7]; M4N 80 μM, Desferoxamine 75 or 150 μM): not much effect

Source: USRE46907E1, “Suppression of cancer growth and metastasis using nordihydroguaiaretic acid derivatives with metabolic modulators” (THE JOHNS HOPKINS UNIVERSITY, priority 2008, dated 2018)
